Test results as given in PubChem BioAssay AID1549 (Sanford-Burnham Center for Chemical Genomics, 2009).
Calls of active or inactive are those of the source. The rule behind the calls is not given here.

Target: Influenza A virus M2 proton channel (A/TW/4845/1999 H1N1)
Experiment: M2 proton channel binding, NMR based, influenza A virus H1N1 strain (AID 1549)
Settings: NMR binding screen, M2 protein

Row | SMILES | Kd
1 | S=c1nc(C2CC2)[nH]c2ccccc12 | > 4 mM (inactive)
2 | CC(=O)N1CCN(c2ccc(O)cc2)CC1 | > 4 mM (inactive)
3 | Cc1noc(C)c1C(=O)N1CCc2ccccc21 | > 4 mM (inactive)
4 | CCSc1nc2ccccc2[nH]1 | > 4 mM (inactive)
5 | COC1C(O)C(O[C@H]2CC[C@]3(C=O)C4C(CC[C@]3(O)C2)[C@@]2(O)CC[C@H](C3=CC(=O)OC3)[C@@]2(C)C[C@H]4OC(C)=O)OC(C)C1OC(C)=O (stereo partly drawn) | > 4 mM (inactive)
6 | CN1CCC=C(C(=O)O)C1 | > 4 mM (inactive)
7 | Cn1ccc(C(=O)NC(=S)NN2CCOCC2)n1 | > 4 mM (inactive)
8 | COc1ccc(-c2cc(=O)c3c(OC)c(OC)c(OC)c(OC)c3o2)cc1OC | > 4 mM (inactive)
9 | CC1=C(/C=C/C(C)=C/C=C/C(C)=C/CO)C(C)(C)CCC1 | > 4 mM (inactive)
10 | Cc1nn(-c2ccccc2C(=O)O)c(=O)c2ccccc12 | > 4 mM (inactive)
11 | O=S(=O)(N1CCOCC1)n1nnc2ccccc21 | > 4 mM (inactive)
12 | CCCOn1nnnc1-c1ccccc1 | > 4 mM (inactive)
13 | CCC(=O)NC(=S)Nc1ccc(N2CCOCC2)cc1 | > 4 mM (inactive)
14 | Cc1oc(-c2ccccc2)nc1CC(=O)O | > 4 mM (inactive)
15 | Nc1ccccc1OC(F)(F)F | > 4 mM (inactive)
16 | Cc1cc(C(=O)Nc2ccccn2)no1 | > 4 mM (inactive)
17 | COc1ccc(/C=C2/C(=O)N=C(N)N2C)cc1OC | > 4 mM (inactive)
18 | Cc1ccc(F)cc1NC(=O)c1ccc2c(c1)OCO2 | > 4 mM (inactive)
19 | CC(C)CC(=O)NC1CCSC1=O (stereo not drawn) | > 4 mM (inactive)
20 | CC(O)c1nc2ccccc2[nH]1 (stereo not drawn) | > 4 mM (inactive)
21 | COc1cc2c(cc1OC)-c1nnnn1C(C)(C)C2 | > 4 mM (inactive)
22 | C=C1CSc2nc(=O)c3c(C)c(C)sc3n21 | > 4 mM (inactive)
23 | CC[C@]12CCCN3CCc4c(n(c5ccccc45)[C@](O)(C(=O)OC)C1)[C@@H]32 | > 4 mM (inactive)
24 | O=C(NCCO)NC(=S)c1ccccc1 | > 4 mM (inactive)

Row | SMILES | Kd
25 | C=C[C@H]1CN2CC[C@H]1C[C@@H]2[C@@H](O)c1ccnc2ccc(OC)cc12 | > 4 mM (inactive)
26 | NCCCCN=C(N)N | > 4 mM (inactive)
27 | CC(=O)NC12CC3CC(CC(O)(C3)C1)C2 | > 4 mM (inactive)
28 | COC(=O)c1c(C)c2c(c(C)c1O)OC(=O)c1c(C)c(Cl)c(O)c(Cl)c1O2 | > 4 mM (inactive)
29 | Cc1nn(-c2ccccc2)nc1CO | > 4 mM (inactive)
30 | CCNCC(O)c1ccc([N+](=O)[O-])cc1 (stereo not drawn) | > 4 mM (inactive)
31 | C=CCn1c(-c2ccc(O)cc2)n[nH]c1=S | > 4 mM (inactive)
32 | COc1ccc2c(c1)OCC(Cc1ccc(OC)c(O)c1)C2=O (stereo not drawn) | > 4 mM (inactive)
33 | COC1(C)CCC2OC2(C)CCC2C1CC2(C)C (stereo not drawn) | > 4 mM (inactive)
34 | Cc1ccc(C)n1NC(=O)c1cccs1 | > 4 mM (inactive)
35 | CCOC(=O)c1cc2ccccc2oc1=O | > 4 mM (inactive)
36 | O=C1NC(=S)N/C1=C/c1ccc(O)c(Cl)c1 | > 4 mM (inactive)
37 | CCCCn1c(=O)cc(O)c2ccccc21 | > 4 mM (inactive)
38 | OC[C@H]1O[C@@H](O[C@H]2[C@H](O)[C@@H](O)[C@@H](O)O[C@@H]2CO)[C@H](O)[C@@H](O)[C@@H]1O | > 4 mM (inactive)
39 | Oc1ccccc1C(=S)N1CCCCCC1 | > 4 mM (inactive)
40 | CC(=O)NC(=S)Nc1cccc(C(=O)O)c1C | > 4 mM (inactive)
41 | CCCCN1C(=O)N(C)C2NC(=O)NC21 (stereo not drawn) | > 4 mM (inactive)
42 | COc1ccc2nc(N)sc2n1 | > 4 mM (inactive)
43 | CC(C1OC(C)(C)C(O)C1O)[C@@H]1CC[C@]2(C)C3=CCC4C(C)(C)C(=O)CC[C@]4(C)C3CC[C@@]12C (stereo partly drawn) | > 4 mM (inactive)
44 | O=S(=O)(c1cccc2cccnc12)N1CCOCC1 | > 4 mM (inactive)
45 | Cc1noc(C)c1C(=O)Nc1ccc2c(c1)CCC2 | > 4 mM (inactive)
46 | Cc1cccc(N2C(=O)CCC2=O)n1 | > 4 mM (inactive)
47 | Cc1ccccc1NC(=O)C1CC(=O)N=C(N)S1 (stereo not drawn) | > 4 mM (inactive)
48 | O=C1CCc2ccccc2CN1 | > 4 mM (inactive)

Row | SMILES | Kd
49 | Cc1ccc(C(=O)Nn2cnnc2)s1 | > 4 mM (inactive)
50 | C=CCSc1[nH]c(=O)cc(C)c1C(N)=O | > 4 mM (inactive)
51 | CC(C)=CCOc1cc2oc(=O)ccc2cc1O | > 4 mM (inactive)
52 | CCc1sc(C(=O)NC)cc1Br | > 4 mM (inactive)
53 | Cc1ccc(C(=O)NC2=NCCS2)o1 | > 4 mM (inactive)
54 | O=C1CN2C(=N1)N(Cc1ccccc1)c1ccccc12 | > 4 mM (inactive)
55 | O=C(CO)N/N=C/c1ccccc1F | > 4 mM (inactive)
56 | S=C(NC1CC1)NN1CCOCC1 | > 4 mM (inactive)
57 | COc1ccc2cc1Oc1ccc(cc1)C[C@H]1c3c(cc4c(c3Oc3cc5c(cc3OC)CCN(C)[C@@H]5C2)OCO4)CCN1C | > 4 mM (inactive)
58 | Cc1cc(=O)[nH]c(N2CCCCC2)n1 | > 4 mM (inactive)
59 | COc1cc2c(cc1OC)C(C)NCC2 (stereo not drawn) | > 4 mM (inactive)
60 | Cc1ccc(C(C)C)cc2c(C)ccc1-2 | > 4 mM (inactive)
61 | OCC1Cc2ccccc2CN1 (stereo not drawn) | > 4 mM (inactive)
62 | O=C(O)C1Cc2ccccc2O1 (stereo not drawn) | > 4 mM (inactive)
63 | O=C1C=CC(=O)N1c1ccc(N2CCOCC2)cc1 | > 4 mM (inactive)
64 | O=C1NC(=S)NC(=O)C1=Cc1ccncc1 | > 4 mM (inactive)
65 | COc1cc(N)ccc1NC(=O)c1cccs1 | > 4 mM (inactive)
66 | Nc1nc(-c2ccccc2)ns1 | > 4 mM (inactive)
67 | NC1=NC(=O)C(Cc2cccc([N+](=O)[O-])c2)S1 (stereo not drawn) | > 4 mM (inactive)
68 | CN1CCN(C(=O)c2ccccc2N)CC1 | > 4 mM (inactive)
69 | Fc1ccc(-c2n[nH]c(=S)n2CC2CCCO2)cc1 (stereo not drawn) | > 4 mM (inactive)
70 | COc1ccc2c(c1)OC/C(=C/c1ccc(OC)c(OC)c1)C2=O | > 4 mM (inactive)
71 | COc1ccc([C@@H]2CC(=O)c3c(O)cc(O)cc3O2)cc1O | > 4 mM (inactive)
72 | Cc1occc1C(=O)Nc1cc(C(C)(C)C)on1 | > 4 mM (inactive)

Row | SMILES | Kd
73 | NC(=O)c1ccc(SCC(=O)O)c([N+](=O)[O-])c1 | > 4 mM (inactive)
74 | O=C(c1ccc(N2CCNCC2)cc1)c1cccnc1 | > 4 mM (inactive)
75 | NC(=O)CC(=O)NC12CC3CC(CC(C3)C1)C2 | > 4 mM (inactive)
76 | Cc1ccc2c(c1)=C(c1sc(N)nc1O)C(=O)N=2 | > 4 mM (inactive)
77 | CCOc1cc(S(=O)(=O)n2nc(C)cc2C)ccc1F | > 4 mM (inactive)
78 | CC1(C)C(=O)CC[C@@]2(C)C1C[C@@H](O)[C@@]1(C)C3=CC(=O)O[C@@H](c4ccoc4)[C@]3(C)CCC21 (stereo partly drawn) | > 4 mM (inactive)
79 | CCOC(=O)C1CCC(=O)c2cccn21 (stereo not drawn) | > 4 mM (inactive)
80 | O=S(=O)(CCN1CCCC1)c1ccccc1 | > 4 mM (inactive)
81 | Cc1cc(=O)cc(C)n1NC(N)=S | > 4 mM (inactive)
82 | OC[C@@H]1CCCN2CCCC[C@H]12 | > 4 mM (inactive)
83 | COc1cc2c(cc1OC)-c1cc3ccc(OC)c(OC)c3c[n+]1CC2 | > 4 mM (inactive)
84 | COCC(=O)Nc1nc2ccc(C)cc2s1 | > 4 mM (inactive)
85 | O=C(Nc1cccnc1)Nc1ccc2c(c1)OCO2 | > 4 mM (inactive)
86 | CNc1nc(C)nc(-n2nc(C)cc2C)n1 | > 4 mM (inactive)
87 | O=C1CCC([N+](=O)[O-])C(c2ccccc2F)N1 (stereo not drawn) | > 4 mM (inactive)
88 | Cc1cc([N+](=O)[O-])cc[n+]1[O-] | > 4 mM (inactive)
89 | Cc1noc(-c2ccccc2)c1C(=O)O | > 4 mM (inactive)
90 | NC(=O)Cn1cnc(-c2ccc(F)cc2)c1 | > 4 mM (inactive)
91 | NC(=O)CCN1C(=O)c2ccccc2C1=O | > 4 mM (inactive)
92 | CC1(C)CC[C@]2(C(=O)O)CC[C@]3(C)C(=CCC4[C@@]5(C)CC[C@H](O)[C@@](C)(CO)C5CC[C@]43C)C2C1 (stereo partly drawn) | > 4 mM (inactive)
93 | O=c1ccc2ccc(O)cc2o1 | > 4 mM (inactive)
94 | C/C=C(/C)C(=O)O[C@@H]1Cc2c(ccc3ccc(=O)oc23)OC1(C)C | > 4 mM (inactive)
95 | Cc1nnc(NCc2ccc3c(c2)OCO3)[nH]c1=O | > 4 mM (inactive)
96 | COc1cc(C)c2c(c1C=O)Oc1c(c(C)c(O)c3c1C(O)OC3=O)OC2=O (stereo not drawn) | > 4 mM (inactive)

Row | SMILES | Kd
97 | CSc1ccccc1NC(=O)c1ccoc1C | > 4 mM (inactive)
98 | CC(C)CCCC(C)[C@H]1CCC2C3CC[C@@H]4C[C@H](O)CC[C@]4(C)C3CC[C@@]21C (stereo partly drawn) | > 4 mM (inactive)
99 | COc1ccc(C(=O)/C=C/c2ccccc2)cc1 | > 4 mM (inactive)
100 | O=C(O)c1cc2ccccc2[nH]1 | > 4 mM (inactive)
101 | OCc1cccc2nonc12 | > 4 mM (inactive)
102 | O=C(NN1CCOCC1)c1cccs1 | > 4 mM (inactive)
103 | COc1cc2nc(-c3cccs3)oc(=O)c2cc1OC | > 4 mM (inactive)
104 | OCc1nccn1Cc1ccccc1 | > 4 mM (inactive)
105 | CC1(NC(=O)NCc2ccccc2)CCS(=O)(=O)C1 (stereo not drawn) | > 4 mM (inactive)
106 | Cc1ccc(N)nc1 | > 4 mM (inactive)
107 | Cc1occc(=O)c1O | > 4 mM (inactive)
108 | O=C(O)CCNc1n[nH]c(=O)[nH]c1=O | > 4 mM (inactive)
109 | CN1C(=O)CC[C@H]1c1cccnc1 | > 4 mM (inactive)
110 | C=Cc1c(C)c2cc3[nH]c(cc4nc(cc5nc(cc1[nH]2)C(C)=C5CCC(=O)O)C(CCC(=O)O)=C4C)c(C)c3C=C | > 4 mM (inactive)
111 | S=C=NCc1ccccc1 | > 4 mM (inactive)
112 | CC(=O)O[C@H]1C[C@@H](OC(C)=O)C(C)(C)C2C[C@@H](OC(C)=O)[C@]3(C)C(CC[C@@]4(C)[C@H](c5ccoc5)OC(=O)[C@H]5O[C@]543)[C@]21C (stereo partly drawn) | > 4 mM (inactive)
113 | Cc1cc(C(=O)Nc2cccnc2)cs1 | > 4 mM (inactive)
114 | COc1ccc(NC(=O)N2CCCCC2)cc1 | > 4 mM (inactive)
115 | Cc1nc2sccn2c1C(=O)O | > 4 mM (inactive)
116 | CC(=O)c1cc(C)ccc1OC(=O)c1cccnc1 | > 4 mM (inactive)
117 | NCc1ccc(-n2cccn2)cc1 | > 4 mM (inactive)
118 | O=C(c1nc2ccccc2s1)N1CCSCC1 | > 4 mM (inactive)
